Where two headings read alike, the source gives them in different places.
Target: Human Factor D (Homo sapiens (Human), UniProt P00746)
Assay: Human Factor D Assay
Format: biochemical
Summary of the method: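 IC50 values derive from nonlinear regression of Factor D reaction rates against compound concentration. The enzyme, purified from human serum, is used at 80 nM final with a 5 min room-temperature compound preincubation in 50 mM Tris, 1M NaCl, pH 7.5, before 100 μM Z-L-Lys-SBzl plus 100 μM DTNB are added.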

[1] = Table 3, Human Factor D 80 nM, substrate Z-L-Lys-SBzl, read-out: IC50 (Stars)
[2] = Human Factor D assay of Example 8, Table 2, read-out: IC50
[3] = Human Factor D, Table 3, read-out: IC50
[4] = Human Factor D 80 nM, substrate Z-L-Lys-SBzl, read-out: IC50

Sequence of Human Factor D (P00746 26-253): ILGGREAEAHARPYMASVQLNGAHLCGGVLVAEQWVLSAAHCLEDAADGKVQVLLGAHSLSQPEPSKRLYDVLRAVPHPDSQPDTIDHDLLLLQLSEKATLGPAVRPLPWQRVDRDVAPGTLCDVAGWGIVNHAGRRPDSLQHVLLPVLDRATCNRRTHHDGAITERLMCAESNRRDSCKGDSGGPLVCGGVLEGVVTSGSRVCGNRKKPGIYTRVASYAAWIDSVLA

CC(=O)c1nn(CC(=O)N2C[C@H](F)C[C@H]2C(=O)Nc2nn(CC(F)(F)F)cc2Br)c2ccc(-c3cnc(C)nc3)cc12 [Compound 420, (2S,4R)-1-(2-(3-Acetyl-5-(2-methylpyrimidin-5-yl)-1H-indazol-1-yl)acetyl)-N-(4-bromo-1-(2,2,2-trifluoroethyl)-1H-pyrazol-3-yl)-4-fluoropyrrolidine-2-carboxamide]
IC50 [1]: < 1 µM

CC(=O)c1nn(CC(=O)N2C(=O)CC[C@H]2C(=O)Nc2cccc(Br)n2)c2ccc(-c3cnc(C)nc3)cc12 [Compound 271, (S)-1-(2-(3-Acetyl-5-(2-methylpyrimidin-5-yl)-1H-indazol-1-yl)acetyl)-N-(6-bromopyridin-2-yl)-5-oxopyrrolidine-2-carboxamide]
IC50 [2]: < 1 µM

CC(=O)c1nn(CC(=O)N2C[C@H](F)C[C@H]2C(=O)Nc2cccc(Br)n2)c2ccc(-c3cnc(Cl)nc3)cc12 [Compound 651, (2S,4R)-1-(2-(3-Acetyl-5-(2-chloropyrimidin-5-yl)-1H-indazol-1-yl)acetyl)-N-(6-bromopyridin-2-yl)-4-fluoropyrrolidine-2-carboxamide]
IC50 [3]: > 10 µM

CC(=O)c1nn(CC(=O)N2[C@@H]3C[C@@H]3C[C@H]2C(=O)Nc2cccc(Br)n2)c2ccc(-c3cnc4cc(C5CC5)nn4c3)cc12 [Compound 673, (1R,3S,5R)-2-(2-(3-Acetyl-5-(2-cyclopropylpyrazolo[1,5-a]pyrimidin-6-yl)-1H-indazol-1-yl)acetyl)-N-(6-bromopyridin-2-yl)-2-azabicyclo[3.1.0]hexane-3-carboxamide]
IC50 [3]: < 1 µM

CC(=O)c1nn(CC(=O)N2C[C@H](F)C[C@H]2C(=O)Nc2cccc(Br)n2)c2ccc(-c3ccc4nc(C)nn4c3)cc12 [Compound 311, (2S,4R)-1-(2-(3-acetyl-5-(2-methyl-[1,2,4]triazolo[1,5-a]pyridin-6-yl)-1H-indazol-1-yl)acetyl)-N-(6-bromopyridin-2-yl)-4-fluoropyrrolidine-2-carboxamide]
IC50 [2]: < 1 µM

CC(=O)c1cccc(NC(=O)[C@@H]2C[C@@H](F)CN2C(=O)Cn2nc(C(C)=O)c3cc(-c4cnc(C)nc4)ccc32)n1 [Compound 584, (2S,4R)-1-(2-(3-Acetyl-5-(2-methylpyrimidin-5-yl)-1H-indazol-1-yl)acetyl)-N-(6-acetylpyridin-2-yl)-4-fluoropyrrolidine-2-carboxamide]
IC50 [3]: < 1 µM

COc1ccc(NC(=O)[C@@H]2C[C@@H](F)CN2C(=O)Cn2nc(C(C)=O)c3cc(-c4cnc(C)nc4)ccc32)nc1Br [Compound 394, (2S,4R)-1-(2-(3-Acetyl-5-(2-methylpyrimidin-5-yl)-1H-indazol-1-yl)acetyl)-N-(6-bromo-5-methoxypyridin-2-yl)-4-fluoropyrrolidine-2-carboxamide]
IC50 [1]: < 1 µM

CC(=O)c1nn(CC(=O)N2C[C@H](F)C[C@H]2C(=O)NC2CCN(C(=O)c3cn[nH]c3)CC2)c2ccc(-c3cnc(C)nc3)cc12 [Compound 261, (2S,4R)-N-(1-(1H-pyrazole-4-carbonyl)piperidin-4-yl)-1-(2-(3-acetyl-5-(2-methylpyrimidin-5-yl)-1H-indazol-1-yl)acetyl)-4-fluoropyrrolidine-2-carboxamide]
IC50: 1 to 10 µM

COC[C@@]12C[C@@H]1N(C(=O)Cn1nc(C(C)=O)c3cc(-c4cnc(C)nc4)ccc31)[C@H](C(=O)Nc1cccc(Br)n1)C2 [Compound 417, (1S,3S,5R)-2-(2-(3-Acetyl-5-(2-methylpyrimidin-5-yl)-1H-indazol-1-yl)acetyl)-N-(6-bromopyridin-2-yl)-5-(methoxymethyl)-2-azabicyclo[3.1.0]hexane-3-carboxamide]
IC50 [1]: < 1 µM

CC(=O)c1nn(CC(=O)N2C[C@H](F)C[C@H]2C(=O)Nc2cccc(-c3ccccc3Cl)c2F)c2ccc(-c3cnc4cc(C)nn4c3)cc12 [Compound 296, (2S,4R)-1-(2-(3-acetyl-5-(2-methylpyrazolo[1,5-a]pyrimidin-6-yl)-1H-indazol-1-yl)acetyl)-N-(2′-chloro-2-fluorobiphenyl-3-yl)-4-fluoropyrrolidine-2-carboxamide]
IC50 [2]: < 1 µM

CC(=O)c1cn(CC(=O)N2C[C@H](F)C[C@H]2C(=O)Nc2cccc(Br)n2)c2ccc(-c3cncnc3)cc12 [Compound 14, (2S,4R)-1-(2-(3-acetyl-5-(pyrimidin-5-yl)-1H-indol-1-yl)acetyl)-N-(6-bromopyridin-2-yl)-4-fluoropyrrolidine-2-carboxamide]
IC50 [4]: < 1 µM

CC(=O)c1nn(CC(=O)N2[C@@H]3C[C@@H]3C[C@H]2C(=O)Nc2cccc(OC(F)(F)F)n2)c2ccc(-c3cnc4ccnn4c3)cc12 [Compound 671, (1R,3S,5R)-2-(2-(3-Acetyl-5-(pyrazolo[1,5-a]pyrimidin-6-yl)-1H-indazol-1-yl)acetyl)-N-(6-(trifluoromethoxy)pyridin-2-yl)-2-azabicyclo[3.1.0]hexane-3-carboxamide]
IC50 [3]: < 1 µM

CC(=O)c1nn(CC(=O)N2C[C@H](F)C[C@H]2C(=O)Nc2cccc(-c3cc(S(=O)(=O)NC4CC4)ccc3Cl)c2F)c2ccc(-c3cnc(C)nc3)cc12 [Compound 745, (2S,4R)-1-(2-(3-Acetyl-5-(2-methylpyrimidin-5-yl)-1H-indazol-1-yl)acetyl)-N-(2′-chloro-5′-(N-cyclopropylsulfamoyl)-2-fluoro-[1,1′-biphenyl]-3-yl)-4-fluoropyrrolidine-2-carboxamide]
IC50 [3]: < 1 µM

NC(=O)c1nn(CC(=O)N2C[C@H](F)C[C@H]2C(=O)Nc2cccnc2Cl)c2ccc(-c3ccnnc3)cc12 [Compound 185, 1-(2-((2S,4R)-2-(2-chloropyridin-3-ylcarbamoyl)-4-fluoropyrrolidin-1-yl)-2-oxoethyl)-5-(pyridazin-4-yl)-1H-indazole-3-carboxamide]
IC50: 1 to 10 µM

NC(=O)c1nn(CC(=O)N2C[C@H](F)C[C@H]2C(=O)NC2CCCc3nc(-c4ccc(F)cc4)sc32)c2ccc(-c3ccnnc3)cc12 (stereo partly drawn) [Compound 107, 1-(2-((2S,4R)-4-fluoro-2-(2-(4-fluorophenyl)-4,5,6,7-tetrahydrobenzo[d]thiazol-7-ylcarbamoyl)pyrrolidin-1-yl)-2-oxoethyl)-5-(pyridazin-4-yl)-1H-indazole-3-carboxamide]
IC50 [4]: > 10 µM

CC(=O)c1cn(CC(=O)N2C[C@H](F)C[C@H]2C(=O)NCc2cccc(Cl)c2F)c2ccc(-c3cnc4cc(C)nn4c3)cc12 [Compound 299, (2S,4R)-1-(2-(3-acetyl-5-(2-methylpyrazolo[1,5-a]pyrimidin-6-yl)-1H-indol-1-yl)acetyl)-N-(3-chloro-2-fluorobenzyl)-4-fluoropyrrolidine-2-carboxamide]
IC50 [2]: < 1 µM

CC(=O)c1nn(CC(=O)N2C[C@H](F)C[C@H]2C(=O)Nc2nn(C)c3ncccc23)c2ccc(-c3cnc(C)nc3)cc12 [Compound 439, (2S,4R)-1-(2-(3-Acetyl-5-(2-methylpyrimidin-5-yl)-1H-indazol-1-yl)acetyl)-4-fluoro-N-(1-methyl-1H-pyrazolo[3,4-b]pyridin-3-yl)pyrrolidine-2-carboxamide]
IC50 [1]: < 1 µM

C=CCCCCCCCCCNc1ncc(-c2ccc3c(c2)c(C(C)=O)nn3CC(=O)N2C[C@H](F)C[C@H]2C(=O)NCc2cc(C=C)cc(Cl)c2F)cn1 [Compound 279, (2S,4R)-1-(2-(3-acetyl-5-(2-(undec-10-enylamino)pyrimidin-5-yl)-1H-indazol-1-yl)acetyl)-N-(3-chloro-2-fluoro-5-vinylbenzyl)-4-fluoropyrrolidine-2-carboxamide]
IC50 [2]: > 10 µM

— patent US10287301B2 (Achillion Pharmaceuticals, Inc., priority 2015, dated 2019)
